Reference: the NIST ThermoML archive (doi:10.1016/j.tca.2012.04.033)

Assays:
[1] = Crystal; DTA
[2] = xn = mol fraction of the nth substance listed; conditions: 101 kPa, Liquid, Vibrating tube method
[3] = refractive index (Na D-line) (dimensionless); xn = mol fraction of the nth substance listed; conditions: 101 kPa, Liquid, Standard Abbe refractometry

C[Si](O[Si](C)(c1ccccc1)c1ccccc1)(c1ccccc1)c1ccccc1 [1,3-dimethyl-1,1,3,3-tetraphenyldisiloxane]
Conditions | Normal melting temperature [°C]
[1] | 49.70

C[Si](O[Si](C)(c1ccccc1)c1ccccc1)(c1ccccc1)c1ccccc1 [1,3-dimethyl-1,1,3,3-tetraphenyldisiloxane] + CC(C)O
303.15 K
Conditions | mass density, x1 = 0.00125 [kg/m3] | mass density, x1 = 0.00359 [kg/m3] | mass density, x1 = 0.00759 [kg/m3] | mass density, x1 = 0.01218 [kg/m3] | mass density, x1 = 0.01284 [kg/m3] | refractive index, x1 = 0.00125 | refractive index, x1 = 0.00359 | refractive index, x1 = 0.00759 | refractive index, x1 = 0.01218 | refractive index, x1 = 0.01284
[2] | 778.65 | 783.03 | 788.42 | 794.61 | 795.14 | – | – | – | – | –
[3] | – | – | – | – | – | 1.37416 | 1.37721 | 1.38094 | 1.38528 | 1.38568

C[Si](O[Si](C)(c1ccccc1)c1ccccc1)(c1ccccc1)c1ccccc1 [1,3-dimethyl-1,1,3,3-tetraphenyldisiloxane] + CCCO
303.15 K
Conditions | mass density, x1 = 0.00161 [kg/m3] | mass density, x1 = 0.00428 [kg/m3] | mass density, x1 = 0.00956 [kg/m3] | mass density, x1 = 0.01076 [kg/m3] | mass density, x1 = 0.01339 [kg/m3] | refractive index, x1 = 0.00161 | refractive index, x1 = 0.00428 | refractive index, x1 = 0.00956 | refractive index, x1 = 0.01076 | refractive index, x1 = 0.01339
[2] | 797.94 | 801.12 | 808.9 | 810.51 | 813.97 | – | – | – | – | –
[3] | – | – | – | – | – | 1.38273 | 1.38545 | 1.39061 | 1.39176 | 1.39425

C[Si](O[Si](C)(c1ccccc1)c1ccccc1)(c1ccccc1)c1ccccc1 [1,3-dimethyl-1,1,3,3-tetraphenyldisiloxane] + CCO
298.15 K
Conditions | mass density, [2] [kg/m3] | refractive index, [3]
x1 = 0.0009 | 787.37 | 1.36085
x1 = 0.00225 | 789.76 | 1.36263
x1 = 0.00446 | 794.07 | 1.36586
x1 = 0.00667 | 798.07 | 1.36893
x1 = 0.00825 | 801.34 | 1.37139
x1 = 0.01059 | 805.13 | 1.37427
x1 = 0.01252 | 808.66 | 1.37693

C[Si](O[Si](C)(c1ccccc1)c1ccccc1)(c1ccccc1)c1ccccc1 [1,3-dimethyl-1,1,3,3-tetraphenyldisiloxane] + CO
298.15 K
Conditions | mass density, x1 = 0.00036 [kg/m3] | mass density, x1 = 0.0009 [kg/m3] | mass density, x1 = 0.0018 [kg/m3] | mass density, x1 = 0.00241 [kg/m3] | mass density, x1 = 0.00364 [kg/m3] | refractive index, x1 = 0.00036 | refractive index, x1 = 0.0009 | refractive index, x1 = 0.0018 | refractive index, x1 = 0.00241 | refractive index, x1 = 0.00364
[2] | 787.68 | 789.17 | 791.71 | 793.31 | 796.57 | – | – | – | – | –
[3] | – | – | – | – | – | 1.3274 | 1.3287 | 1.33084 | 1.33228 | 1.33509

C[Si](O[Si](C)(c1ccccc1)c1ccccc1)(c1ccccc1)c1ccccc1 [1,3-dimethyl-1,1,3,3-tetraphenyldisiloxane] + C[Si]1(C)O[Si](C)(C)O[Si](C)(C)O[Si](C)(C)O1
303.15 K
Conditions | mass density, x1 = 0.00724 [kg/m3] | mass density, x1 = 0.01526 [kg/m3] | mass density, x1 = 0.02752 [kg/m3] | mass density, x1 = 0.04184 [kg/m3] | mass density, x1 = 0.05492 [kg/m3] | refractive index, x1 = 0.00724 | refractive index, x1 = 0.01526 | refractive index, x1 = 0.02752 | refractive index, x1 = 0.04184 | refractive index, x1 = 0.05492
[2] | 946.03 | 947.52 | 949.77 | 952.36 | 954.7 | – | – | – | – | –
[3] | – | – | – | – | – | 1.39358 | 1.39553 | 1.3985 | 1.40193 | 1.40505
